Test results from patent publication US10253107B2, “Use of endocytosis inhibitors and antibodies for cancer therapy” (THE UNIVERSITY OF QUEENSLAND, priority 2012, dated 2019).
Entries after “also recorded” stand apart in the source; their conditions may differ. Where two headings read alike, the source gives them in different places. Blank lines part the entries; values can stand above or below the compound they belong to.

Assays:
[1] = system: EGFR endocytosis in A431 cells; assay: EGF-Alexa488 uptake immunofluorescence (ligand-induced EGFR endocytosis); assay type: cell-based, human; details: 15 min EGF-Alexa488 uptake
Protocol: (§1) FIG. 23 is a photographic representation showing example panels for correlation between inhibited EGFR endocytosis and MHC class I and class II status. (A) Immunofluorescence showing manipulation of EGFR trafficking using a dynamin inhibitor. A431 cells were serum-starved for 3 hours and then treated with different concentrations of dynasore (0, 60 and 100 μM) for 0.5 and 24 hours. 15 minutes EGF-Alexa488 (100 ng/mL) uptakes were performed to monitor the trafficking of the ligand bound EGFRs (in green). The nuclei are shown in blue. (B) immunofluorescence showing changes in MHC class I and class II distributions caused by altered EGFR trafficking. A431 cells were treated with different concentrations of dynasore (0, 60 and 100 μM) for 0.5 hours, followed by fixation and permeabilization. MHC class I and class II were then labeled with primary antibodies PE-HLA-ABC and PE-HLA-DR, respectively, followed by secondary antibody labeling (Alexa 594). MHC I and II are shown in red while the nuclei are shown in blue.
FIG. 29 is a photographic representation showing Dyngo4a inhibition of EGFR endocytosis. […] Immunofluorescence was conducted to confirm the manipulation of EGFR trafficking using Dyngo4a. A431 cells were serum-starved for 3 hours and then treated with different concentrations of (A) Dyngo4a (0 and 30 μM) for 30 min. […] The nuclei are shown in blue. […]

A431 cells [2] = assay: MHC class I and class II immunofluorescence in A431 cells; assay type: cell-based, human
Protocol: as §1

A431 cells [3] = assay: Dynasore 24 hour treatment, A431 cells; assay type: cell-based, human
Protocol: as §1

HeLa cells [4] = assay: Dynasore 24 hour treatment, HeLa cells; assay type: cell-based
HeLa cells [5] = details: dose dependent, previous study (23), read-out: IC50 of dynasore mediated endocytosis inhibition; cited from earlier work
A431 cells [6] = assay: Cetuximab mediated ADCC MTS assay; assay type: cell-based, human; details: Dyngo4a 30 μM + cetuximab 60 μg/mL + PBMC, vs cetuximab single treatment
A431 cells [7] = assay: Flow cytometry-based ADCC assay on A431 cells; assay type: cell-based, human; details: FACS; for effect of dynamin inhibitor on cetuximab-dependent ADCC of A431 cells: inhibitor + cetuximab + PBMC
KJD cells [8] = assay: Flow cytometry-based ADCC assay on KJD cells; assay type: cell-based, human; details: for effect of dynamin inhibitor on cetuximab-dependent ADCC of KJD cells: inhibitor + cetuximab + PBMC
A431 cells [9] = assay: Immunofluorescence of cetuximab-EGFR internalization, A431; assay type: cell-based, human; details: 4-hour time-course, Dyngo4a added
Protocol: (§2) A431 cells were seeded on coverslips in 12-well plates and incubated overnight to reach 80% confluence. […] 30 μM dyngo4a was added at given time points as described in figure legends. The cells were then washed three times in ice cold PBS and fixed in 4% PFA/PBS for 30 minutes, followed by permeabilization in 0.1% TritonX/PBS (PBTX) for 20 minutes. […] The coverslips were mounted on slides in Prolong Gold (Life technologies). Images were acquired using a Zeiss 510 Meta confocal with a 63× objective.

KJD cells [10] = assay: Immunofluorescence of cetuximab-EGFR trafficking, KJD; assay type: cell-based, human; details: incubation with Dyngo4a
Protocol: FIG. 28 is a photographic and graphical representation of a multi-parametric FACS analysis showing that manipulation of EGFR trafficking with dynamin inhibitors results in improved ADCC in cetuximab-insensitive cells. (A) Immunofluorescence imaging of cetuximab trafficking status in KJD cells. […] 7-AAD was added at the end of the 4-hour assay to label dead cells prior to FACS analysis. (B) Gating strategies used for the assessment of specific target cell death. FITC indicates CFSE while PerCP-Cy5.5 indicates 7-AAD. The dead target cells appear in the upper right quadrant, CFSE painted and 7-AAD positive. (C.1) KJD cell death under different conditions. (C.2) The percentage of specific KJD cell death was calculated. Data shown are an average of 3 experiments+/−SEM by Two-Way ANOVA with Bonferroni post test. ****: P≤0.0001; ***: P≤0.001; **: P≤0.01; *: P≤0.05. ns: no significance.
as §2

A431 cells [11] = assay: MTS/MTT toxicity assay in the absence of PBMC, A431; assay type: cell-based
Protocol: (§3) FIG. 30 is a graphical representation of a multi-parametric FACS analysis showing that manipulation of EGFR trafficking with dynamin inhibitors, Dyngo4a and Pyrimidyn-7, results in enhanced ADCC in cetuximab-sensitive and insensitive cells. cetuximab-dependent ADCC assays were performed essentially according to the procedures outlined in FIGS. 27 and 28. […] (C) Percentage of specific KJD cell death is shown in the presence of dynamin inhibitors only. […] (E) An MTS assay was conducted in the absence of PBMC to assess toxicity of compounds in the absence of ADCC. […] Triton X100 is added as a control for maximum cell death. (F) An MTS assay was conducted in the absence of PBMC to assess toxicity of compounds in the absence of ADCC. […] Triton X100 is added as a control for maximum cell death. (G) An MTS assay was conducted to assess possible toxicity of dynamin inhibitors to PBMC cells. […] Triton X100 is added as a control for maximum cell death.
(§4) Compounds Dyngo4a and Pyrimidyn-7 were tested in both multi-variant FACS analysis assay as described in Example 4 and by MTT assay. In particular, compounds were tested for improvement of cetuximab-dependent ADCC against cetuximab-sensitive A431 cells and cetuximab-resistant KJD cells and for single agent toxicity.

KJD cells [12] = assay: MTS/MTT toxicity assay in the absence of PBMC, KJD; assay type: cell-based; details: absence of PBMC/ADCC, single agent or with cetuximab
Protocol: as §3, §4

PBMC = assay: MTS/MTT toxicity of dynamin inhibitors to PBMC; assay type: cell-based; details: for toxicity to PBMC: MTS/MTT, single agent
Protocol: Dyngo4a (0 and 30 μM) was added at the end of the incubation. 10% Triton was added to A431 cells after 24-hour incubation with PBMCs for cell death control. The ADCC effects were measured by MTS assay. The cell viability was presented as OD values at 490 nm. The average of OD values released from background was subtracted from effector cell controls (A-II) and target/effector tests (A-III).
as §3, §4

dynamin = details: cited from earlier work
[13] = A431, dynasore 0, 60, 100 μM, 0.5 hours

cell morphology after 24 hours dynasore (A431 cells [3]): cellular nuclear condensation
Compound: O=C(N/N=C/c1ccc(O)c(O)c1)c1cc2ccccc2cc1O [Dynasore, 3-hydroxynaphthalene-2-carboxylic acid (3,4-dihydroxybenzylidene) hydrazide]
ligand-induced EGFR endocytosis [1]: successfully functioned as an endocytosis inhibitor
plasma membrane levels of MHCI (A431 cells [2]; A431, EGF stimulation coupled with dynasore inhibition): no longer detectable
MHCI signal (A431 cells [2]; [13]): increasing MHCI signal
MHCII signal (A431 cells [2]; [13]): decrease in MHCII signal
cell morphology after 24 hours dynasore (HeLa cells [4]): appeared apoptotic or to have cytokinetic defects
IC50 (HeLa cells [5]): ~15 µM

Compound: O=C(N/N=C/c1cc(O)c(O)cc1O)c1cc2ccccc2cc1O [Dyngo-4a]
cetuximab mediated ADCC in presence of dynamin inhibitor (cell viability, MTS) (A431 cells [6]): cells lost more viability
effect of Dyngo4a on Herceptin-dependent ADCC of A431 cells (A431 cells [7]; Dyngo4a + Herceptin + PBMC): enhance both cetuximab-dependent and Herceptin-dependent ADCC
effect of dynamin inhibitor on cetuximab-dependent ADCC of A431 cells (A431 cells [7]): increased level of cetuximab-induced ADCC; also recorded: improve cetuximab-dependent ADCC; also recorded: enhance both cetuximab-dependent and Herceptin-dependent ADCC
cetuximab-induced ADCC with Dyngo4a, KJD cell killing (KJD cells [8]; Dyngo4a 30 μM + cetuximab 60 μg/mL + PBMC, 4 hours): greater than 40%
effect of Dyngo4a on Herceptin-dependent ADCC of KJD cells (KJD cells [8]; Dyngo4a + Herceptin + PBMC, FACS): enhance Herceptin-dependent ADCC of KJD cells even more so
tumor cell killing by inhibitor alone (KJD cells [8]; Dyngo4a alone, without cetuximab): did not kill tumor cells
effect of dynamin inhibitor on cetuximab-dependent ADCC of KJD cells (KJD cells [8]; FACS): improve cetuximab-dependent ADCC; also recorded: enhance both cetuximab-dependent and Herceptin-dependent ADCC
ligand-induced EGFR endocytosis [1]: has an inhibitory effect on the ligand-induced EGFR endocytosis
surface and internalized levels of cetuximab (A431 cells [9]): increases surface levels of cetuximab and decreases internalized levels
plasma membrane expression of EGFR (KJD cells [10]): increased the plasma membrane expression of EGFR
toxicity to A431 cells (A431 cells [11]): no toxicity as a single agent
toxicity to A431 cells (A431 cells [11]; human): no significant toxicity on A431 cells
toxicity to KJD cells (KJD cells [12]): no toxicity as a single agent; also recorded: no significant toxicity on KJD cells
cell viability of PBMCs (effector cells) (PBMC; Dyngo4a alone and with cetuximab, MTS, vs negative and 10% Triton controls): did not cause large cell viability reduction in PBMCs
toxicity to PBMC (PBMC): no toxicity as a single agent; also recorded: no significant toxicity

Compound: N#C/C(=C\c1ccc(O)c(O)c1)C(=O)NCCCNC(=O)/C(C#N)=C/c1ccc(O)c(O)c1 [Bis-T-22, 2-cyano-N-{3-[2-cyano-3-(3,4-dihydroxyphenyl)-acryloylamino]-propyl}-3-(3-,4-dihydroxyphenyl)-acrylamide]
basal dynamin GTPase activity (dynamin; absence of PS liposomes, dynamin rings): stimulates basal dynamin GTPase activity
inhibition of helical dynamin (dynamin; dynamin activated by phosphatidylserine (PS) liposomes): potent in vitro inhibitor of dynamin

Compound: CCCCCCCCCCCCNc1cc(C)nc(NCCN(C)C)n1 [Pyrimidyn-7]
effect of dynamin inhibitor on cetuximab-dependent ADCC of A431 cells (A431 cells [7]): improve cetuximab-dependent ADCC
cell death by ADCC in the absence of cetuximab (KJD cells [8]; KJD cells (FIG. 30C), inhibitor only): Some increase in cell death
effect of dynamin inhibitor on cetuximab-dependent ADCC of KJD cells (KJD cells [8]; FACS): improve cetuximab-dependent ADCC
toxicity to A431 cells (A431 cells [11]; MTS/MTT, absence of PBMC/ADCC, single agent or with cetuximab): showed single agent toxicity; also recorded: significant death of A431 cells
toxicity to KJD cells (KJD cells [12]): showed single agent toxicity; also recorded: significant death of KJD cells
toxicity to PBMC (PBMC): showed single agent toxicity; also recorded: shows toxicity
